# Earlier results in patent publication US20120245028A1, “Methods for Use of Tetraalkyl Ammonium Halide Compositions as Post-emergence Higher Plant Herbicides” (priority 2011, published 2012).
# Tests used:
# [1] = test system: infected field apple trees; conditions: infected field apple trees treated with 5% solution
# [2] = test system: small apple tree seedlings; conditions: following fungus inoculation and a treatment with 5% solution
structure (smiles),measurement,setting,value
"CCCCCCCCCC[N+](C)(C)CCCCCCCCCC.[Br-] [DDAB, didecyl dimethyl ammonium bromide]",damage caused by the treatments,[1],no obvious damage
same,effect upon the total number of growing buds,[1],no effect
same,phytotoxicity,[2],severe phytotoxicity
